Data published in patent US20120277272A1, “Ethanamine Compounds and Methods of Using the Same” (priority 2008, published 2012).
Where a name gives a salt, the structure may show the parent alone. Read-outs that look alike come from different tables or passages of the source.

Columns and labels:
[1] = biological target: T1, NMDA receptor; assay: MK801 binding inhibition (NMDA receptor antagonist activity in vitro); details: inhibition of MK801 binding to the NMDA receptor
T1 construct: Mean Ki; Mean Maximum effect
Description: (§1) NMDA receptor antagonist activity can be measured in vitro by assaying a compound's ability to inhibit binding of the receptor antagonist 10,11-dihydro-5-methyl-5H-dibenzo[a,d]-cyclohepten-5,10-imine (MK801) to the receptor. The method is described by Foster and Wong, Br. J. Pharmacol. 91, 403-409 (1987).
as §1, with “was” for “can be”, “10,11-dihdro-5-methyl-5H-dibenzo[a,d]-cyclohepten-5,10-imine” for “10,11-dihydro-5-methyl-5H-dibenzo[a,d]-cyclohepten-5,10-imine”

[2] = test system: NMDA receptor; assay: NMDA trapping; format: cell-based; details: Table 4; as described in Mealing et al. 2001
Description: Trapping data was generated as described in Mealing et al., J. Pharmacol. Exp. Therapeutics 2001, (297/3), 906-914.

[3] = biological target: Human NR1/NR2A channel (Homo sapiens, UniProt Q05586+Q12879); assay: Automated patch clamp (QPatch16) block of NR1/NR2A channel currents in CHO-1H8 cells; format: cell-based
Chain of Human NR1/NR2A channel (Q12879 23-1464, other chains not shown): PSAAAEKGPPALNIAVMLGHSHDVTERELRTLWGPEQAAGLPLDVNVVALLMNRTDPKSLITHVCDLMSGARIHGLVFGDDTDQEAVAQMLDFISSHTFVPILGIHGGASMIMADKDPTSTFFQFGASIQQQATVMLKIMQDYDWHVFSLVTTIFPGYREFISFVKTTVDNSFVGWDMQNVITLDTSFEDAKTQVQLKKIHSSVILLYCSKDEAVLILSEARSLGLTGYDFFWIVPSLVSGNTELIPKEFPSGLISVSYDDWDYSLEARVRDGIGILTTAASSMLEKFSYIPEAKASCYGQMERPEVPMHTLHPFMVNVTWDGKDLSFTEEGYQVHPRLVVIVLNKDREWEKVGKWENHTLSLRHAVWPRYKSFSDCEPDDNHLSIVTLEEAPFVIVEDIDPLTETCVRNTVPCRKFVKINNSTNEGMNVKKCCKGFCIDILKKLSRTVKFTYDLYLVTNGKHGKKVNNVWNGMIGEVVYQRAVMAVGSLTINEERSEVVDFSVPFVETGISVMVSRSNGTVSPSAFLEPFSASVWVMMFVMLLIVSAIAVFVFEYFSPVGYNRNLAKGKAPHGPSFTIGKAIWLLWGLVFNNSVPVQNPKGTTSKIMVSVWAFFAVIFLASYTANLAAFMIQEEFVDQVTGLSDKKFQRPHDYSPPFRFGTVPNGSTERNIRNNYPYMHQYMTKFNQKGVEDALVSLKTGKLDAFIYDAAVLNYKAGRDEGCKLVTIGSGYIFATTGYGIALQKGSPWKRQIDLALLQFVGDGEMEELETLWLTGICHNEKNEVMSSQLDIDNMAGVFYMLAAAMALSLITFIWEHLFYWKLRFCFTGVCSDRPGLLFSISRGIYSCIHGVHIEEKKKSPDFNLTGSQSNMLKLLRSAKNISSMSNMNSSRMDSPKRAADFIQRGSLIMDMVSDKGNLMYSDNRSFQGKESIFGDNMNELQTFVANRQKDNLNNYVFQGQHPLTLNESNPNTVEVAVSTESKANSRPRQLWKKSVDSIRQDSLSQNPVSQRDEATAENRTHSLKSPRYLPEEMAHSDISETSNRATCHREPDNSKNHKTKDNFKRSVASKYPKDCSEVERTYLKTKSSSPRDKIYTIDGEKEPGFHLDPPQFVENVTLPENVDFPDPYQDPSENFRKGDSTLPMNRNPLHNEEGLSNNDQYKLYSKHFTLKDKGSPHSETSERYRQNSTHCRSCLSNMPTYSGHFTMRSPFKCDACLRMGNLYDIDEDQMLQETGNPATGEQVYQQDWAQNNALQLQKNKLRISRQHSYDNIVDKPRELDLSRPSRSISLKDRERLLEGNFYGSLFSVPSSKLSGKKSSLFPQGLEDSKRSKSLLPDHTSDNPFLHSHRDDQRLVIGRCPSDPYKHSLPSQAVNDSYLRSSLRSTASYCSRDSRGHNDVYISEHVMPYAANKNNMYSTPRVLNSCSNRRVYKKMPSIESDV
Description: Chinese Hamster Ovary (CHO-KI) cells were transfected with Effectene^R reagent following the manufacturer's instructions. Cells were triply transfected with plasmids pTet-Off, pTRE2-pur hNR1, and pGEN IRES Hyg-hNR2A. Transfection was done in medium containing Ham's F12, 10% FBS, 2 mM L-Glutamine, 200 μM ketamine and 2 μg/ml doxycycline. 24 hours post transfection, cells were split 1:10 into medium in which 200 μM ketamine was replaced with 20 μM MK-801. After an additional 24 hours (48 hours post transfection), antibiotic selection was performed as follows: 1 μg/ml puromycin, 500 μg/ml hygromycin, and 500 μg/ml geneticin (G418). After two weeks in the selection medium (with medium changes every 3-5 days), 15-20 clones developed in the flask. These clones were pooled and cultured for one more week. Cells were then clonally plated in two 96-well plates at 1 cell/well by limiting dilution. After three weeks, cells were trypsinized and each original 96-well plate was divided into two; one plate was cultured in the presence of 2 μg/ml doxycycline and the other was cultured for assay without doxycycline. After three days, the assay plates were screened for functional NMDAR expression by stimulating with 50 μM glycine/100 μM glutamate. Two positive clones were expanded and tested for glutamate dose response with glycine fixed at 30 μM. One clone, CHO-1H8 gave robust, dose-dependent response to glutamate and was selected for further characterization.
For routine culture, CHO-1H8 cells were maintained in Ham's F-12+2 mM L-Glutamine (PAA, E15-817), 10% FBS (Sigma, F7442), 1 μg/mL puromycin (Invitrogen A1113802), 250 μg/mL hygromycin (Invitrogen 10687010), 250 μg/mL geneticin (Invitrogen 11811-098), 1 μg/mL doxycycline (Sigma D9891), and 300 μM of the NMDA-channel blocker (R)-α-amino-6,7-dimethyl-3-(phosphonomethyl)-2-quinolinepropanoic acid (CAS 170847-87-7, Swahn et al., Bioorg. Med. Chem. Lett. 1996, 1635). Cells to be used in functional assay were grown in same medium as above, but with 1 μg/mL doxycycline replaced by 2 μg/mL tetracycline (Sigma T7660) three days before induction. Growth medium was replaced every 2-3 days, i.e. Monday-Wednesday-Friday. For induction of NMDAR expression, CHO-1H8 cells were cultured without doxycycline or tetracycline (but with CAS 170847-87-7) for 48 hours in medium prepared with Tet System-Approved FBS (BD Biosciences). […]
In order to evaluate effects of test compounds as inhibitors of NR1/NR2A channels, the channels were first activated by addition of a NMDAR agonist NMDA (Sigma, M3262) and Glycine (Merck, 3570) to the extracellular bath solution. […] NR1/NR2A currents were recorded for 12 sec after activation with 100 μM NMDA/10 μM Glycine (Icontrol). […]

[4] = Table 1, read-out: MK801 Binding IC50
[5] = Table 4, NR1/NR2A currents, cells clamped at −60 mV, activated with 100 μM NMDA/10 μM Glycine, 0.41-33.33 μM compound, read-out: Mean IC50
[6] = Table 3, listed as Ex 8, fumarate salt

Work on `CC(C)(c1ccccn1)[C@H](N)c1ccccc1` (as salt: HCl) [Example 2, (R)-2-methyl-1-phenyl-2-(pyridin-2-yl)propan-1-amine] yielded a melting point of 188 °C.
In the case of `CC(C)(c1ccccn1)[C@@H](N)c1ccccc1` (as salt: HCl) [Example 3, (S)-2-methyl-1-phenyl-2-(pyridin-2-yl)propan-1-amine], the melting point is reported as 188 °C.
With `CC(C)(c1ccccn1)C(N)c1ccccc1` (racemic) (as salt: hydrochloride) [Example 1, 2-methyl-1-phenyl-2-(pyridin-2-yl)propan-1-amine] the melting point was 188 °C.
In the case of `CC(C)(c1ccccn1)C(N)c1ccccc1` (racemic) [Example 1, 2-methyl-1-phenyl-2-(pyridin-2-yl)propan-1-amine], the IC50 [1, 4] is reported as 12 µM, the Ki ([1]; Table 3) is reported as 4.9 µM and the “Mean Maximum effect” value ([1]; Table 3) is reported as 75%. It also gave an IC50 ([1]; Table 3, read-out: Mean IC50) of 12 µM.
Compound `CC(C)(c1ccccn1)C(N)c1cccc(F)c1` (racemic) [Example 4, 1-(3-fluorophenyl)-2-methyl-2-(pyridin-2-yl)propan-1-amine] has an IC50 [1, 4] of 3.3 µM.
With `CC(C)(c1ccccn1)C(N)c1cccc(F)c1.O=C(O)/C=C/C(=O)O` (racemic) [Example 9, 1-(3-Fluorophenyl)-2-methyl-2-(pyridin-2-yl)propan-1-amine fumarate salt, racemate] the Ki ([1]; Table 3) was 1.3 µM, the “Mean Maximum effect” value ([1]; Table 3) was 83% and the IC50 ([1]; Table 3, read-out: Mean IC50) was 3.2 µM.
`N[C@@H](Cc1ccccn1)c1ccccc1` (single isomer, unassigned) [Example 13, dihydrochloride, reference compound] gave a Trapping [2] of 53%, an IC50 [3] of 6 µM and a Ki ([1]; Table 3) of 2.9 µM. The “Mean Maximum effect” value ([1]; Table 3) was 89% and the IC50 ([1]; Table 3, read-out: Mean IC50) was 6.6 µM.
`N[C@H](Cc1ccccn1)c1ccccc1` (single isomer, unassigned) [Example 14, dihydrochloride, reference compound] gave an IC50 [3] of 10 µM.
For `CC(C)(c1ccccn1)C(N)c1cccc(F)c1.O=C(O)/C=C/C(=O)O` (single isomer, unassigned; stereoisomer 1) [Example 10, 1-(3-fluorophenyl)-2-methyl-2-(pyridin-2-yl)propan-1-amine fumarate salt, stereoisomer 1], the Ki ([1]; Table 3, listed as Ex 10) was 15 µM, the “Mean Maximum effect” value ([1]; Table 3, listed as Ex 10) was 87% and the IC50 ([1]; Table 3, listed as Ex 10, read-out: Mean IC50) was 25 µM.
In the case of `CC(C)(c1ccccn1)C(N)c1cccc(F)c1.O=C(O)/C=C/C(=O)O` (single isomer, unassigned; stereoisomer 2) [Example 11, 1-(3-fluorophenyl)-2-methyl-2-(pyridin-2-yl)propan-1-amine fumarate salt, stereoisomer 2], the Ki ([1]; Table 3, listed as Ex 11) is reported as 2.5 µM, the “Mean Maximum effect” value ([1]; Table 3, listed as Ex 11) is reported as 97% and the IC50 ([1]; Table 3, listed as Ex 11, read-out: Mean IC50) is reported as 4.1 µM.
In the case of `CC(C)(c1ccccn1)[C@H](N)c1ccccc1` [Example 2, (R)-2-methyl-1-phenyl-2-(pyridin-2-yl)propan-1-amine], the IC50 [3, 5] is reported as 10 µM, the IC50 [1, 4] is reported as 6.4 µM and the Ki ([1]; Table 3) is reported as > 7.9 µM. The “Mean Maximum effect” value ([1]; Table 3) was 64% and the IC50 ([1]; Table 3, read-out: Mean IC50) was > 25 µM.
With `CC(C)(c1ccccn1)[C@@H](N)c1ccccc1` [Example 3, (S)-2-methyl-1-phenyl-2-(pyridin-2-yl)propan-1-amine] the Trapping [2] was 39%, the IC50 [3, 5] was 3 µM and the IC50 [1, 4] was 35 µM. The Ki ([1]; Table 3, listed as Ex 3) was 1.8 µM, the “Mean Maximum effect” value ([1]; Table 3, listed as Ex 3) was 76% and the IC50 ([1]; Table 3, listed as Ex 3, read-out: Mean IC50) was 5.7 µM.
Work on `CC(C)(c1ccccn1)[C@H](N)c1cccc(F)c1` [Example 5, (R)-1-(3-fluorophenyl)-2-methyl-2-(pyridin-2-yl)propan-1-amine] yielded an IC50 [1, 4] of 5.5 µM.
`CC(C)(c1ccccn1)[C@@H](N)c1cccc(F)c1` [Example 6, (S)-1-(3-fluorophenyl)-2-methyl-2-(pyridin-2-yl)propan-1-amine] gave an IC50 [1, 4] of 25 µM.
With `CC(C)(c1ccccn1)[C@@H](N)c1ccccc1` [Example 8, (S)-2-methyl-1-phenyl-2-(pyridine-2-yl)propan-1-amine fumarate salt] the Ki [1, 6] was 3.2 µM, the “Mean Maximum effect” value [1, 6] was 90% and the IC50 ([1]; Table 3, listed as Ex 8, fumarate salt, read-out: Mean IC50) was 5.1 µM.
